Experimental data published in patent US4206207A, “Use of 4-carboxy-phthalato(1,2-diaminocyclohexane)-platinum (II) and alkali metal salts thereof with cyclophosphamide in alleviating L1210 murine leukemia” (priority 1978, dated 1980).

Tests used:
Lewis lung = test: Mouse tumor panel: Lewis lung (iv, survival time); format: in vivo; details: D1-9
Description: (§1) NSC-271674 Against a Panel of a Mouse Tumors
(§2) *Survival time (mean or median) assay
(§3) Data are expressed as a percentage of the survival time in days or the
(§4) tumor weights in mg of the treated mice divided by the corresponding
(§5) values for the control mice. All testing was performed using both platinu
(§6) compounds in the same experiment. The criteria for activity are as
(§7) follows: confirmed activity (activity from two separate laboratories) of
(§8) % T/C of 150 or more for survival systems and 10% or less for tumor weigh
(§9) inhibition assays. Lower levels of activity such as a % T/C of 125 for
(§10) survival systems and 42% for tumor weight inhibition assays are considere
(§11) statistically significant.

L1210 [1] = test: Mouse tumor panel: L1210 (ip, survival time); format: in vivo; details: D1-9
Description: as §1, §2, §3, §4, §5, §6, §7, §8, §9, §10, §11

Colon #38 = test: Mouse tumor panel: Colon #38 (sc, tumor weight inhibition); format: in vivo; details: D2,9
Description: as §1
(§12) **Tumor weight inhibition assay.
as §3, §4, §5, §6, §7, §8, §9, §10, §11

CD8F1 mammary = test: Mouse tumor panel: CD8F1 mammary (sc, tumor weight inhibition); format: in vivo; details: Q7DX5
Description: as §1, §12, §3, §4, §5, §6, §7, §8, §9, §10, §11

[2] = tested on: strains of murine leukemia; test: Activity against strains of murine leukemia resistant to NSC 119875 (general statement); details: mouse, in vivo
B16 melanoma = test: Mouse tumor panel: B16 melanoma (ip, survival time); format: in vivo; details: D1-9
Description: as §1, §2, §3, §4, §5, §6, §7, §8, §9, §10, §11

P388/DDP = test: In vivo activity against P388/DDP leukemia with acquired resistance to NSC-119875; details: Days 1,5,9,13, NSC-119875 6.7 mg/kg, NSC-271674 20.0 mg/kg
Text: P388/DDP refers to a tumor line with acquired resistance to NSC119875.
(§13) Data are expressed as survival in days and as a percentage increase in […]

L1210 [3] = test: In vitro growth inhibition of L1210 cells; format: cell-based, murine
Text: (§14) The ID50 refers to the concentration of test compound required to
(§15) inhibit the growth of either the L1210 or L1210/DDP (NSC119875) resistant

P388 leukemia = test: In vivo activity against P388 leukemia; details: Days 1,5,9,13, NSC-119875 6.7 mg/kg, NSC-271674 20.0 mg/kg
Text: as §13

L1210/DDP = test: In vitro growth inhibition of L1210/DDP (NSC-119875 resistant) cells; format: cell-based, murine
Text: as §14, §15

[4] = tested on: adenocarcinoma of the stomach, pancreas, and large bowel; details: combined FU and radiation vs radiation alone; cited from earlier work
L1210 leukemia = format: in vivo, mice; details: hydroxyurea alone, at least 1000 mg/kg
Description: Compound Pt-307 was administered usually in a dosage regimen of 5-60 mg/kg of body weight. This was given as a single dose or on Days 1, 5, and 9 in the standard National Institutes of Health 10-day testing.
CY was utilized at an optimum 50 mg/kg of body weight (range 25-75 mg/kg) preferably given at Day 3 in the 10-day testing. 5-FU was utilized at 75 mg/kg of body weight (range 50-100 mg/kg) at Day 3. HU was used in a high dosage of at least 1000 mg/kg of body weight (range 1000-1500 mg/kg). The 5-FU and the HU were utilized as ternary compositions only with cyclophosphamide and the platinum compound.
Hydroxyurea is utilized in combination therapy at a high dosage of at least 1000 mg/kg of body weight (range 1000-1500 mg/kg).

For N.N.[Cl][Pt][Cl] [NSC-119875, cisdichlorodiamino platinum II, reference compound], the “% T/C (survival time) at optimal dose” value (Lewis lung; Lewis lung first line, optimal dose NSC-119875 2, NSC-271674 3.12 mg/kg/inj) was 135%, the “% T/C (survival time) at optimal dose” value (Lewis lung; Lewis lung second line, optimal dose NSC-119875 2, NSC-271674 6.25 mg/kg/inj) was 177% and the “% T/C (survival time) at optimal dose” value (L1210 [1]; L1210 first line, optimal dose NSC-119875 2, NSC-271674 0.78 mg/kg/inj) was 151%. The “% T/C (survival time) at optimal dose” value (L1210 [1]; L1210 second line, optimal dose NSC-119875 2, NSC-271674 1.56 mg/kg/inj) was 182%, the “% T/C (tumor weight) at optimal dose” value (Colon #38; Colon #38 first line, optimal dose NSC-119875 8, NSC-271674 12.5 mg/kg/inj) was 42% and the “% T/C (tumor weight) at optimal dose” value (Colon #38; Colon #38 second line, optimal dose NSC-119875 16, NSC-271674 50 mg/kg/inj) was 11%. The “% T/C (tumor weight) at optimal dose” value (CD8F1 mammary; CD8F1 first line, optimal dose NSC-119875 8, NSC-271674 6.25 mg/kg/inj) was 0%, the “% T/C (tumor weight) at optimal dose” value (CD8F1 mammary; CD8F1 second line, optimal dose NSC-119875 8, NSC-271674 25 mg/kg/inj) was 0% and the “activity against NSC 119875-exhausted strains (in words)” value [2] was “has exhausted its activity”. For the same compound, the “% T/C (survival time) at optimal dose” value (B16 melanoma; B16 first line, optimal dose NSC-119875 2, NSC-271674 6.25 mg/kg/inj) was 193%, the “% T/C (survival time) at optimal dose” value (B16 melanoma; B16 second line, optimal dose NSC-119875 1, NSC-271674 1.56 mg/kg/inj) was 166% and the “% ILS” value (P388/DDP) was 41%. The “Survival” value (P388/DDP) was 15.5 days, the “ID50 (concentration required to inhibit the growth of cells by 50 percent)” value (L1210 [3]) was 0.05 µg/mL and the “% ILS” value (P388 leukemia) was 145%. The “Survival” value (P388 leukemia) was 32.6 days and the “ID50 (concentration required to inhibit the growth of cells by 50 percent)” value (L1210/DDP) was 2.50 µg/mL.
For O=c1[nH]cc(F)c(=O)[nH]1 [5-FU, 5-fluorouracil], the “mean survival times (in words)” value [4] is given as “significantly increased”.
With NC(=O)NO [hydroxyurea] the “efficacy against L1210 (in words)” value (L1210 leukemia) was “only minimally effective”.
